Literature values as cited in patent US20170247690A1, “ONCOVIRAL TREATMENT WITH NUCLEASE AND CHEMOTHERAPEUTIC” (priority 2016, published 2017).

Columns and labels:
proteasome T-L activity = conditions: animal model studies
20S proteasomes = 20S proteasomes (Homo sapiens, UniProt Q99436); conditions: purified 20S proteasomes

| SMILES | T-L proteasome activity in vivo (proteasome T-L activity) | EC50 for trypsin-like (T-L) activity, comparison (20S proteasomes) |
| --- | --- | --- |
| CC(C)C[C@H](NC(=O)[C@H](Cc1ccccc1)NC(=O)c1cnccn1)B(O)O [bortezomib] | enhances T-L proteasome activity |  |
| C[C@@]12OC(=O)[C@]1([C@@H](O)[C@@H]1C=CCCC1)NC(=O)[C@@H]2CCCl [salinosporamide A, Salinosporamide A] | marked inhibition of T-L activity | lower EC50 for trypsin-like (T-L) activity than does bortezomib |
